Experimental data taken from ChEMBL document CHEMBL4831553, “Heterocyclic Compounds as Dihydroorotate Dehydrogenase Inhibitors for Treating Acute Myelogenous Leukemia (AML)” (ACS Med Chem Lett, 2021).

Columns and labels:
[1] = biological target: Dihydroorotate dehydrogenase (quinone), mitochondrial (Homo sapiens, UniProt Q02127); test: Inhibition of human DHODH using dihydroorotate as substrate and CoQ6 as co-substrate by DCIP dye based spectrophotometry analysis
MOLM-13 = test: Antiproliferative activity against human MOLM-13 assessed as reduction in cell viability incubated for 72 hrs by Cell titer-Glo assay; format: functional, cell-based; settings: MOLM-13, 72 h

Dihydroorotate dehydrogenase (quinone), mitochondrial, sequence (Q02127 whole entry): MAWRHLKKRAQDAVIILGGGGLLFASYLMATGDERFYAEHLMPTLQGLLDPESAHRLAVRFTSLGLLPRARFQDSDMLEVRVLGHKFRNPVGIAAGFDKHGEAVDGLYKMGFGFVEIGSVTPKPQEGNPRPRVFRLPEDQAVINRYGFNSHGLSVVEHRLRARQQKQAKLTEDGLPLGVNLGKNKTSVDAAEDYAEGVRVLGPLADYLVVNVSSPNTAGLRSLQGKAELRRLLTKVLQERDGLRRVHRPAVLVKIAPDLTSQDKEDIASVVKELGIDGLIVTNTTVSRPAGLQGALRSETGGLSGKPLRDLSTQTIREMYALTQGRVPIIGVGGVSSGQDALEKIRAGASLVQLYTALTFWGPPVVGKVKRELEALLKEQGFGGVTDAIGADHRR

Structure (SMILES) | IC50 [1] [nM] | IC50 (MOLM-13) [nM]
CCn1c(CO)nn(-c2nc(O[C@@H](C)C(F)(F)F)c3c(Nc4c(F)cccc4Cl)nncc3c2F)c1=O | 0.38 | 0.46
CCn1c(CO)nn(-c2cc(O[C@@H](C)C(F)(F)F)c3c(Oc4c(F)ccc(OC)c4Cl)nccc3c2)c1=O | 0.3 | 0.3
CCn1c(CO)nn(-c2nc(O[C@@H](C)C(F)(F)F)c3c(Oc4c(F)cccc4Cl)nncc3c2F)c1=O | 0.2 | 0.2
CCn1c(CO)nn(-c2cc(O[C@@H](C)C(F)(F)F)c3c(Oc4c(F)ccc(OCCOC)c4Cl)nccc3c2)c1=O | 0.41 | 0.3
CCn1c(CO)nn(-c2nc(OC(C)C(F)(F)F)c3c(Oc4c(F)cccc4Cl)nccc3c2F)c1=O (configuration not stated) | 0.59 | 0.4
CCn1c(CO)nn(-c2cc(O[C@@H](C)C(F)(F)F)c3c(Oc4c(F)ccc(N(C)C)c4Cl)nccc3c2)c1=O | 0.4 | 0.3
